Test results published in PubChem BioAssay AID2060896 (Molecular Pharmacology Branch, DTP, NCI, 2025).

System: 941728-121-R-J1-PDC complex spheroid viability
Assay: Anticancer human tumor 941728-121-R-J1-PDC patient-derived lung adenocarcinoma cell line growth inhibition [RAS]
Conditions: for IC50: curve of first compound; for viability, T/C: stronger effect = lower value
In short: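 Multi-cell-type spheroids: tumor cells plus HUVEC endothelial cells and mesenchymal stem cells. RAS-pathway inhibitors were combined with targeted agents, each dosed in half-log steps down from clinical Cmax, or from 10 microM when Cmax was unknown.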

[1] = second compound 0.000949 µM, first compound 0.000949 µM
[2] = second compound 0.000949 µM, first compound 0.003 µM
[3] = second compound 0.000949 µM, first compound 0.00949 µM
[4] = second compound 0.000949 µM, first compound 0.03 µM
[5] = second compound 0.000949 µM, first compound 0.0949 µM
[6] = second compound 0.000949 µM, first compound 0.3 µM
[7] = second compound 0.003 µM, first compound 0.000949 µM
[8] = second compound 0.003 µM, first compound 0.003 µM
[9] = second compound 0.003 µM, first compound 0.00949 µM
[10] = second compound 0.003 µM, first compound 0.03 µM
[11] = second compound 0.003 µM, first compound 0.0949 µM
[12] = second compound 0.003 µM, first compound 0.3 µM
[13] = second compound 0.00949 µM, first compound 0.000949 µM
[14] = second compound 0.00949 µM, first compound 0.003 µM
[15] = second compound 0.00949 µM, first compound 0.00949 µM
[16] = second compound 0.00949 µM, first compound 0.03 µM
[17] = second compound 0.00949 µM, first compound 0.0949 µM
[18] = second compound 0.00949 µM, first compound 0.3 µM
[19] = second compound 0.03 µM, first compound 0.000949 µM
[20] = second compound 0.03 µM, first compound 0.003 µM
[21] = second compound 0.03 µM, first compound 0.00949 µM
[22] = second compound 0.03 µM, first compound 0.03 µM
[23] = second compound 0.03 µM, first compound 0.0949 µM
[24] = second compound 0.03 µM, first compound 0.3 µM
[25] = second compound 0.0949 µM, first compound 0.000949 µM
[26] = second compound 0.0949 µM, first compound 0.003 µM
[27] = second compound 0.0949 µM, first compound 0.00949 µM
[28] = second compound 0.0949 µM, first compound 0.03 µM
[29] = second compound 0.0949 µM, first compound 0.0949 µM
[30] = second compound 0.0949 µM, first compound 0.3 µM
[31] = second compound 0.3 µM, first compound 0.000949 µM
[32] = second compound 0.3 µM, first compound 0.003 µM
[33] = second compound 0.3 µM, first compound 0.00949 µM
[34] = second compound 0.3 µM, first compound 0.03 µM
[35] = second compound 0.3 µM, first compound 0.0949 µM
[36] = second compound 0.3 µM, first compound 0.3 µM
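Also: spheroids exposed to compounds for 7 days before readout.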
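For viability, T/C in this document: 100% = DMSO vehicle control viability.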

C=CC(=O)N1CCN(c2nc(OCC3CCCN3C)nc3c(F)c(-c4nc(N)cc(C)c4C(F)(F)F)c(Cl)cc23)C(C)C1 (stereo unspecified) + CCn1c(-c2cccnc2C(C)OC)c2c3cc(ccc31)N1CCOC(CC(NC(=O)C(C(C)C)N(C)C(=O)C3(F)CCN(C(=O)C#CC(C)(C)N(C)C)CC3)C(=O)N3CCCC(N3)C(=O)OCC(C)(C)C2)C1
IC50 (second compound 0.000949 µM): < 3160 pM | IC50 (second compound 0.003 µM): < 3160 pM | IC50 (second compound 0.00949 µM): < 3160 pM | IC50 (second compound 0.03 µM): < 3160 pM | IC50 (second compound 0.0949 µM): < 3160 pM | IC50 (second compound 0.3 µM): < 3160 pM | viability, T/C (second compound 0.000949 µM, first compound 0.00316 µM): 22.3% | viability, T/C (second compound 0.000949 µM, first compound 0.01 µM): 23.4% | viability, T/C (second compound 0.000949 µM, first compound 0.0316 µM): 20.6% | viability, T/C (second compound 0.000949 µM, first compound 0.1 µM): 22.8% | viability, T/C (second compound 0.000949 µM, first compound 0.316 µM): 22.8% | viability, T/C (second compound 0.000949 µM, first compound 1 µM): 19.9% | viability, T/C (second compound 0.003 µM, first compound 0.00316 µM): 26.6% | viability, T/C (second compound 0.003 µM, first compound 0.01 µM): 22.7% | viability, T/C (second compound 0.003 µM, first compound 0.0316 µM): 21.4% | viability, T/C (second compound 0.003 µM, first compound 0.1 µM): 24.5% | viability, T/C (second compound 0.003 µM, first compound 0.316 µM): 23.2% | viability, T/C (second compound 0.003 µM, first compound 1 µM): 19% | viability, T/C (second compound 0.00949 µM, first compound 0.00316 µM): 24.7% | viability, T/C (second compound 0.00949 µM, first compound 0.01 µM): 21.1% | viability, T/C (second compound 0.00949 µM, first compound 0.0316 µM): 22.7% | viability, T/C (second compound 0.00949 µM, first compound 0.1 µM): 23.4% | viability, T/C (second compound 0.00949 µM, first compound 0.316 µM): 20.6% | viability, T/C (second compound 0.00949 µM, first compound 1 µM): 20.5% | viability, T/C (second compound 0.03 µM, first compound 0.00316 µM): 22.4% | viability, T/C (second compound 0.03 µM, first compound 0.01 µM): 22.5% | viability, T/C (second compound 0.03 µM, first compound 0.0316 µM): 25.3% | viability, T/C (second compound 0.03 µM, first compound 0.1 µM): 24.8% | viability, T/C (second compound 0.03 µM, first compound 0.316 µM): 18.7% | viability, T/C (second compound 0.03 µM, first compound 1 µM): 23.6% | viability, T/C (second compound 0.0949 µM, first compound 0.00316 µM): 22.7% | viability, T/C (second compound 0.0949 µM, first compound 0.01 µM): 23.9% | viability, T/C (second compound 0.0949 µM, first compound 0.0316 µM): 23.4% | viability, T/C (second compound 0.0949 µM, first compound 0.1 µM): 23.4% | viability, T/C (second compound 0.0949 µM, first compound 0.316 µM): 22.6% | viability, T/C (second compound 0.0949 µM, first compound 1 µM): 25.4% | viability, T/C (second compound 0.3 µM, first compound 0.00316 µM): 22.7% | viability, T/C (second compound 0.3 µM, first compound 0.01 µM): 25% | viability, T/C (second compound 0.3 µM, first compound 0.0316 µM): 22.4% | viability, T/C (second compound 0.3 µM, first compound 0.1 µM): 21.4% | viability, T/C (second compound 0.3 µM, first compound 0.316 µM): 21% | viability, T/C (second compound 0.3 µM, first compound 1 µM): 28%

CC1(C)CCC(Nc2ncc(C(F)(F)F)c(-c3c[nH]c4c(P(C)(C)=O)c(C#N)ccc34)n2)CN1 (stereo unspecified) + CCn1c(-c2cccnc2C(C)OC)c2c3cc(ccc31)N1CCOC(CC(NC(=O)C(C(C)C)N(C)C(=O)C3(F)CCN(C(=O)C#CC(C)(C)N(C)C)CC3)C(=O)N3CCCC(N3)C(=O)OCC(C)(C)C2)C1
IC50 (second compound 0.000949 µM): < 949 pM | IC50 (second compound 0.003 µM): < 949 pM | IC50 (second compound 0.00949 µM): < 949 pM | IC50 (second compound 0.03 µM): < 949 pM | IC50 (second compound 0.0949 µM): < 949 pM | IC50 (second compound 0.3 µM): < 949 pM | viability, T/C [1]: 21% | viability, T/C [2]: 20.7% | viability, T/C [3]: 16.3% | viability, T/C [4]: 23.5% | viability, T/C [5]: 24.3% | viability, T/C [6]: 15.7% | viability, T/C [7]: 25.2% | viability, T/C [8]: 19.5% | viability, T/C [9]: 18.2% | viability, T/C [10]: 22.9% | viability, T/C [11]: 22.2% | viability, T/C [12]: 16.6% | viability, T/C [13]: 21.4% | viability, T/C [14]: 20.2% | viability, T/C [15]: 21.2% | viability, T/C [16]: 19.6% | viability, T/C [17]: 21.2% | viability, T/C [18]: 21.9% | viability, T/C [19]: 20.4% | viability, T/C [20]: 17% | viability, T/C [21]: 22.8% | viability, T/C [22]: 21.7% | viability, T/C [23]: 19% | viability, T/C [24]: 21.6% | viability, T/C [25]: 19.5% | viability, T/C [26]: 20.3% | viability, T/C [27]: 21% | viability, T/C [28]: 23.4% | viability, T/C [29]: 19% | viability, T/C [30]: 23.7% | viability, T/C [31]: 20.7% | viability, T/C [32]: 19.9% | viability, T/C [33]: 25.6% | viability, T/C [34]: 20.9% | viability, T/C [35]: 21.4% | viability, T/C [36]: 25.6%

CCc1c2c(nc3ccc(O)cc13)-c1cc3c(c(=O)n1C2)COC(=O)[C@]3(O)CC + CCn1c(-c2cccnc2C(C)OC)c2c3cc(ccc31)N1CCOC(CC(NC(=O)C(C(C)C)N(C)C(=O)C3(F)CCN(C(=O)C#CC(C)(C)N(C)C)CC3)C(=O)N3CCCC(N3)C(=O)OCC(C)(C)C2)C1
IC50 (second compound 0.000949 µM): < 949 pM | IC50 (second compound 0.003 µM): < 949 pM | IC50 (second compound 0.00949 µM): < 949 pM | IC50 (second compound 0.03 µM): < 949 pM | IC50 (second compound 0.0949 µM): < 949 pM | IC50 (second compound 0.3 µM): < 949 pM | viability, T/C [1]: 23.7% | viability, T/C [2]: 18.9% | viability, T/C [3]: 14.2% | viability, T/C [4]: 17.5% | viability, T/C [5]: 11.7% | viability, T/C [6]: 6.82% | viability, T/C [7]: 25.2% | viability, T/C [8]: 21.1% | viability, T/C [9]: 14.8% | viability, T/C [10]: 14.4% | viability, T/C [11]: 12.2% | viability, T/C [12]: 7.12% | viability, T/C [13]: 22.4% | viability, T/C [14]: 16.3% | viability, T/C [15]: 17.1% | viability, T/C [16]: 13.5% | viability, T/C [17]: 11.2% | viability, T/C [18]: 7.23% | viability, T/C [19]: 22.5% | viability, T/C [20]: 18.8% | viability, T/C [21]: 18% | viability, T/C [22]: 16.2% | viability, T/C [23]: 9.36% | viability, T/C [24]: 8.84% | viability, T/C [25]: 19.7% | viability, T/C [26]: 19.7% | viability, T/C [27]: 17.2% | viability, T/C [28]: 15.3% | viability, T/C [29]: 10.7% | viability, T/C [30]: 9.1% | viability, T/C [31]: 21.8% | viability, T/C [32]: 18% | viability, T/C [33]: 16.4% | viability, T/C [34]: 14.2% | viability, T/C [35]: 10.8% | viability, T/C [36]: 7.87%
